# Measured values as given in patent US9192604B2, “Method of administration and treatment” (GlaxoSmithKline Intellectual Property (No. 2) Limited, priority 2011, dated 2015).
# Like-named read-outs stand apart in the source and are kept apart here.
# Key:
# [1] = system: patients with mesothelioma; experiment: Phase I clinical study, anti-tumor activity (RECIST 1.1, Kaplan-Meier PFS) by merlin status; assay type: in vivo, human
# Source text: A multi-part, Phase I study was designed to determine the maximum tolerated dose (MTD), safety, tolerability, pharmacokinetics (PK), pharmacodynamics (PD), and anti-tumor activity of Compound A in patients with advanced solid tumors. Part 1 of the study identified the MTD using a dose escalation procedure, and is described herein. Parts 2-3 are ongoing. Part 2 further explores the safety and tolerability of Compound A at or below the MTD, and Part 3 evaluates the pharmacodynamics of Compound A at doses at and below the MTD. Part 4 was not opened for patient accrual at the time of this summary and will explore the safety, tolerability, pharmacokinetics and clinical activity of Compound A in patients with recurrent glioblastoma multiforme. Part 5 was not opened for patient accrual at the time of this summary and will explore the pharmacokinetics of Compound A over several weeks of administration. Patients with mesothelioma were eligible to participate, e.g, in Part 1, of the study. Patients with mesothelioma were eligible to participate in Parts 1-3 of the study at the time the data below were collected.
# Patients 18 years old with advanced solid tumors with histologically or cytologically confirmed diagnosis of a solid tumor malignancy that was not responsive to accepted standard therapies or for which there is no standard or curative therapy were eligible. All patients provided signed informed consent. […] In Parts 2-3 of the study, patients with tumors reported in the literature to overexpress FAK that are not responsive to accepted standard therapies or for which there were no standard or curative therapies were included. Subjects in Part 3 were also required to have solid tumors amenable to biopsy.
# Patients with an active gastrointestinal disease known to interfere with the pharmacokinetics of drugs or prior resection of the small intestine were ineligible. Other exclusion criteria included unresolved toxicity>Grade 1 from previous anticancer therapy except alopecia, QTcF interval>450 msecs in males (470 in females) or congenital long QT syndrome, history of acute coronary syndromes, Class II-IV heart failure as defined by the New York Heart Association, symptomatic or untreated brain metastases, primary malignancy of the central nervous system (in Parts 1-3), nursing females, consumption of dietary substances or prohibited medications as defined in the protocol, or any serious and/or unstable pre-existing medical, psychiatric, or other condition that could interfere with subject safety or obtaining informed consent.
# Measurements to evaluate safety included weight, heart rate, blood pressure, temperature, clinical laboratory tests, 12-lead ECG, and neurologic and physical evaluation. Adverse events were assessed throughout the study using the CTCAE v4.0, Common Terminology Criteria for Adverse Events (CTCAE) Version 4.0, US Department of Health and Human Services, National Institutes of Health, National Cancer Institute, May 2009.
# Disease assessment was performed at screening and every 6 weeks after the start of dosing. Response was recorded as complete response (CR), partial response (PR), stable disease (SD), or progressive disease (PD) according to the RECIST Version 1.1.
# To determine if loss of merlin in the current Phase I mesothelioma population was predictive of response to Compound A, merlin levels were assessed in archival tissue (FFPE) collected at screening by immunohistochemistry (IHC), and the result correlated to clinical endpoint of median progression free survival (PFS).
# A custom IHC assay was developed by Mosaic laboratories, Inc, employing a rabbit polyclonal antibody (Santa Cruz Biotechnology, Inc, catalog # SC332) using a dilution of 1:1600. The antibody signal was evaluated by Envision+rabbit HRP (DAKO) detection kit, and the staining intensity (Grade 0-3+) was used to categorize merlin status (merlin positive=wildtype or merlin negative=loss of merlin) of the clinical samples tested. […]
# NCI-H2052 cells = experiment: Anchorage-independent growth-death assay (methylcellulose, CellTiter-Glo, 6 days); assay type: cell-based, human; settings: for IC50: Homo sapiens, read-out: Growth Inhibition gIC50
# Procedure: (§1) Five human mesothelioma cell lines and two additional human lung cancer cell lines available from the ATCC were used in these studies. Cells were grown in RPMI1640 media containing 10% FBS, 1% L-glutamine, 1% sodium pyruvate under standard cell culture conditions. The mesothelioma cell lines: NCI-H2052, MSTO-211H, NCI-H28, NCI-H226, NCI-H2452, and additional lung lines: A549 and SW-1573. An additional three mesothelioma cell lines, Mero-41, Mero-82, and Mero-14, were grown under identical conditions.
# (§2) The cellular response to Compound A was evaluated in an anchorage-independent cell growth assay that quantified the extent of cell growth inhibition and the net change in cell population. The assay was performed in black, clear bottom, untreated 384-well plates (Greiner #781096). It is important to use either non-tissue culture treated or Low Attachment plates to prevent cells from adhering to the plate during the assay. In brief, the assay was performed as described below.
# (§3) A 1% (weight/volume) stock of methylcellulose solution was prepared by dissolving 5 grams of sterilized methylcellulose (Sigma #M0512) in 495 mL of cell culture medium. Here, RPMI1640 media containing 10% FBS, 1% L-glutamine, 1% sodium pyruvate was added to the cooled methylcellulose that had been placed in a glass container and autoclaved to sterilize. Media can be substituted if the cells require different cell culture medium for growth. The dissolution often took a day with vigorous stirring at 4° C. maintaining sterile conditions.
# (§4) Cells were plated into a 384 well plate with assay conditions of 0.65% methylcellulose (final concentration) and 1000 cells per well in a final volume of 48 μL. This was achieved by diluting cells harvested from culture and re-suspended in growth medium (dilute to 2.0833×10^4 cells/mL) with the 1% methylcellulose. The cells were mixed by inversion to distribute evenly, bubbles were dispersed and 48 μL was placed into the well with a positive displacement pipette. The plates were placed in a cell culture incubator containing 5% CO2 at 37° C.
# (§5) Serial dilution of compound in DMSO was done in a 384 well plate starting with 20 μL of stock compound solution in the first column and 10 μL of DMSO in the other wells. Ten μL from the compound well was transferred into the DMSO containing well, mixed, and the serial dilution was continued with 10 μL transfers across the plate. Then, 4 μL of this DMSO diluted compound was added into wells of a new 384 well plate containing 105 μL of appropriate growth medium. This ‘compound plate’ was used to dose the assay plates containing cells in methylcellulose.
# (§6) To initiate the assay, two μL from each well of the ‘compound plate’ were added to individual wells of the ‘assay plates,’ each well containing the 48 μL of cells in methylcellulose. These assay plates were placed in the cell culture incubator for 6 days. One plate was selected at random and developed with Cell TiterGlo (CTG) at the time of compound addition to represent the time equal zero (T0) plate, i.e. to represent the number of cells at the time of compound addition.
# (§7) On day 6, the assay was stopped by developing the plates, placing a black sticker on bottom of each plate to block light, adding 25 μL of CTG, and incubating the plates for 20 minutes at room temperature. The plates were scanned using a luminescence protocol on the EnVision (Perkin-Elmer).
# (§8) Results were expressed as a percent of the T0 value and plotted against the compound concentration. […] The cellular response was determined by fitting the concentration response curves using a 4-parameter curve fit equation and determining the concentration that inhibited growth by 50% (gIC50). The gIC50 value is the midpoint of the growth window (between T0 and growth of DMSO controls). […]
# Mero-14 cells = experiment: as above; assay type: cell-based, human; settings: second anchorage-independent assay, Mero-14, merlin negative
# Procedure: as §1, §2, §3, §4, §5, §6, §7, §8
# Mero-82 cells = experiment: as above; assay type: cell-based, human; settings: second anchorage-independent assay, Mero-82, merlin negative
# Procedure: as §1, §2, §3, §4, §5, §6, §7, §8
# MSTO-211H cells = experiment: as above; assay type: cell-based, human; settings: for IC50: Homo sapiens
# Procedure: as §1, §2, §3, §4, §5, §6, §7, §8
# NCI-H226 cells = experiment: as above; assay type: cell-based, human; settings: second anchorage-independent assay, NCI-H226, merlin negative
# Procedure: as §1, §2, §3, §4, §5, §6, §7, §8
# Mero-41 cells = experiment: as above; assay type: cell-based, human; settings: second anchorage-independent assay, Mero-41, merlin negative
# Procedure: as §1, §2, §3, §4, §5, §6, §7, §8
# [2] = system: merlin negative cell lines; experiment: Anchorage-independent growth-death assay, merlin negative cell line panel; assay type: cell-based; settings: Homo sapiens, ALL5; second anchorage-independent assay; all 5 merlin negative cell lines; read-out: gIC50 values
# Procedure: as §1
# The cellular response to Compound A was evaluated in an anchorage-independent cell growth assay that quantified the extent of cell growth inhibition and the net change in cell population. The assay was performed in black, clear bottom, untreated 384-well plates (Greiner #781096). […]
# as §7
# Results were expressed as a percent of the T0 value and plotted against the compound concentration. […] The cellular response was determined by fitting the concentration response curves using a 4-parameter curve fit equation and determining the concentration that inhibited growth by 50% (gIC50). […]
# [3] = mesothelioma patients, 26 with radiologic assessments, RECIST 1.1
# [4] = second anchorage-independent assay, NCI-H2052, merlin negative
# [5] = Homo sapiens, read-out: Growth Inhibition gIC50
smiles,measurement,setting,value
"CONC(=O)c1ccccc1Nc1cc(Nc2cc(C)nn2C(C)C)ncc1Cl [Compound A, 2-[(5-chloro-2-{[3-methyl-1-(1-methylethyl)-1H-pyrazol-5-yl]amino}-4-pyridinyl)amino]-N-(methyloxy)benzamide]",Overall median progression free survival (PFS),"[1]; all mesothelioma patients, 95% CI 9.7, 24.1, Kaplan-Meier",17.7 weeks
same,Patients with PD as best response to treatment,[1]; [3],9 patients
same,Patients with SD as best response to treatment,[1]; [3],fourteen
same,Patients with non-CR/non-PD as best response to treatment,[1]; [3],three
same,PR or CR; minor responses,"[1]; mesothelioma patients, RECIST 1.1","no patients experienced a PR or CR, minor responses in some patients with mesothelioma were seen"
same,Merlin negative patients remaining on study for more than four months,"[1]; mesothelioma, merlin negative",Seven of 14
same,Median PFS in merlin negative subjects,"[1]; mesothelioma, merlin negative, n=14, 95% CI 6.0, 29.3",24.1 weeks
same,Merlin positive patients remaining on study for more than four months,"[1]; mesothelioma, merlin positive",three of nine
same,Median PFS in merlin positive subjects,"[1]; mesothelioma, merlin positive, n=9, 95% CI 7.3, undefined",11.4 weeks
same,IC50,"NCI-H2052 cells; 144 h, initial anchorage-independent assay, NCI-H2052, NF2 mutant, merlin negative, 6 days",186 nM
same,IC50,NCI-H2052 cells; [4],236 nM
same,Net Pop. change Ymin-T0,"NCI-H2052 cells; initial anchorage-independent assay, NCI-H2052, NF2 mutant, 6 days",−3%
same,Net Population Change Ymin-T0,NCI-H2052 cells; [4],7%
same,IC50,Mero-14 cells; [5],63 nM
same,Net Population Change Ymin-T0,Mero-14 cells,−55%
same,IC50,Mero-82 cells; [5],59 nM
same,Net Population Change Ymin-T0,Mero-82 cells,−22%
same,IC50,"MSTO-211H cells; 144 h, initial anchorage-independent assay, MSTO-211H, NF2 wild-type, merlin positive, 6 days, read-out: Growth Inhibition gIC50",3590 nM
same,IC50,"MSTO-211H cells; second anchorage-independent assay, MSTO-211H, merlin positive, read-out: Growth Inhibition gIC50",10900 nM
same,IC50,"MSTO-211H cells; second anchorage-independent assay, merlin positive cell line (MSTO-211H), read-out: Concentration required for 50% growth inhibition",~10000 nM
same,Net Pop. change Ymin-T0,"MSTO-211H cells; initial anchorage-independent assay, MSTO-211H, NF2 wild-type, 6 days, highest concentration ~30 μM",343%
same,Net Population Change Ymin-T0,"MSTO-211H cells; second anchorage-independent assay, MSTO-211H, merlin positive",367%
same,IC50,NCI-H226 cells; [5],196 nM
same,Net Population Change Ymin-T0,NCI-H226 cells,−18%
same,IC50,Mero-41 cells; [5],54 nM
same,Net Population Change Ymin-T0,Mero-41 cells,−54%
same,IC50,[2],< 250 nM
